Data reported in patent publication US20220169628A1 (University of Florida Research Foundation, Incorporated, priority 2019, published 2022).
Read-outs that look alike come from different tables or passages of the source.

Columns and labels:
[1] = test system: MOLT-4 cells; experiment: Cell viability assay, MTS, 48 h, MOLT-4; assay type: cell-based; settings: 48 hours, read-out: IC50 (48 hours) MOLT-4
Procedure: (§1) Acute lymphoblastic leukemia cells (MOLT-4 and RS4; 11) or small cell lung cancer (NCI-H146 or simply H146) were incubated with increasing concentrations of Bcl-xL degraders for 48 h. Cell viability was measured by tetrazolium-based MTS assay.

[2] = test system: RS4;11 cells; experiment: Cell viability assay, MTS, 48 h, RS4;11; assay type: cell-based; settings: 48 hours, read-out: IC50 (48 hours) RS4;11
Procedure: as §1

IC50 ([1]; Homo sapiens, MOLT-4, 48 h) [µM] | IC50 ([2]; Homo sapiens, RS4-11, 48 h) [µM] | IC50 [1] [µM] | IC50 [2] [µM] | SMILES
> 0.5 | 0.15 to 0.5 | – | – | Cc1ncsc1-c1ccc([C@H](C)NC(=O)[C@@H]2C[C@@H](O)CN2C(=O)[C@@H](NC(=O)CCCN2CCN(CC3(C)CCC(c4ccc(Cl)cc4)=C(CN4CCN(c5ccc(C(=O)NS(=O)(=O)c6ccc(N[C@H](CCN7CCOCC7)CSc7ccccc7)c(S(=O)(=O)C(F)(F)F)c6)cc5)CC4)C3)CC2)C(C)(C)C)cc1 (stereo partly drawn) [compound 68, (2S,4R)-1-((2S)-2-(4-(4-((4′-chloro-4-methyl-6-((4-(4-(((4-(((R)-4-morpholino-1-(phenylthio)butan-2-yl)amino)-3-((trifluoromethyl)sulfonyl)phenyl)sulfonyl)carbamoyl)phenyl)piperazin-1-yl)methyl)-2,3,4,5-tetrahydro-[1,1′-biphenyl]-4-yl)methyl)piperazin-1-yl)butanamido)-3,3-dimethylbutanoyl)-4-hydroxy-N—((S)-1-(4-(4-methylthiazol-5-yl)phenyl)ethyl)pyrrolidine-2-carboxamide]
– | – | 0.05 to 0.15 | 0.05 to 0.15 | Cc1ncsc1-c1ccc([C@H](C)NC(=O)[C@@H]2C[C@@H](O)CN2C(=O)[C@@H](NC(=O)CCCCCN2CCN(CC3(C)CCC(c4ccc(Cl)cc4)=C(CN4CCN(c5ccc(C(=O)NS(=O)(=O)c6ccc(N[C@H](CCN7CCOCC7)CSc7ccccc7)c(S(=O)(=O)C(F)(F)F)c6)cc5)CC4)C3)CC2)C(C)(C)C)cc1 (stereo partly drawn) [compound 69, (2S,4R)-1-((2S)-2-(6-(4-((4′-chloro-4-methyl-6-((4-(4-(((4-(((R)-4-morpholino-1-(phenylthio)butan-2-yl)amino)-3-((trifluoromethyl)sulfonyl)phenyl)sulfonyl)carbamoyl)phenyl)piperazin-1-yl)methyl)-2,3,4,5-tetrahydro-[1,1′-biphenyl]-4-yl)methyl)piperazin-1-yl)hexanamido)-3,3-dimethylbutanoyl)-4-hydroxy-N—((S)-1-(4-(4-methylthiazol-5-yl)phenyl)ethyl)pyrrolidine-2-carboxamide]
0.05 to 0.15 | 0.05 to 0.15 | – | – | CC1(CNC(=O)CCCCNc2cccc3c2C(=O)N(C2CCC(=O)NC2=O)C3=O)CCC(c2ccc(Cl)cc2)=C(CN2CCN(c3ccc(C(=O)NS(=O)(=O)c4ccc(N[C@H](CCN5CCOCC5)CSc5ccccc5)c(S(=O)(=O)C(F)(F)F)c4)cc3)CC2)C1 (stereo partly drawn) [compound 70, 4-(4-((4′-chloro-4-((5-((2-(2,6-dioxopiperidin-3-yl)-1,3-dioxoisoindolin-4-yl)amino)pentanamido)methyl)-4-methyl-3,4,5,6-tetrahydro-[1,1′-biphenyl]-2-yl)methyl)piperazin-1-yl)-N-((4-(((R)-4-morpholino-1-(phenylthio)butan-2-yl)amino)-3-((trifluoromethyl)sulfonyl)phenyl)sulfonyl)benzamide]
< 0.05 | < 0.05 | – | – | CC1(CNC(=O)CCCCCNc2cccc3c2C(=O)N(C2CCC(=O)NC2=O)C3=O)CCC(c2ccc(Cl)cc2)=C(CN2CCN(c3ccc(C(=O)NS(=O)(=O)c4ccc(N[C@H](CCN5CCOCC5)CSc5ccccc5)c(S(=O)(=O)C(F)(F)F)c4)cc3)CC2)C1 (stereo partly drawn) [compound 71, 4-(4-((4′-chloro-4-((6-((2-(2,6-dioxopiperidin-3-yl)-1,3-dioxoisoindolin-4-yl)amino)hexanamido)methyl)-4-methyl-3,4,5,6-tetrahydro-[1,1′-biphenyl]-2-yl)methyl)piperazin-1-yl)-N-((4-(((R)-4-morpholino-1-(phenylthio)butan-2-yl)amino)-3-((trifluoromethyl)sulfonyl)phenyl)sulfonyl)benzamide]
< 0.05 | < 0.05 | – | – | CC1(CNC(=O)CCCCCCNc2cccc3c2C(=O)N(C2CCC(=O)NC2=O)C3=O)CCC(c2ccc(Cl)cc2)=C(CN2CCN(c3ccc(C(=O)NS(=O)(=O)c4ccc(N[C@H](CCN5CCOCC5)CSc5ccccc5)c(S(=O)(=O)C(F)(F)F)c4)cc3)CC2)C1 (stereo partly drawn) [compound 72, 4-(4-((4′-chloro-4-((7-((2-(2,6-dioxopiperidin-3-yl)-1,3-dioxoisoindolin-4-yl)amino)heptanamido)methyl)-4-methyl-3,4,5,6-tetrahydro-[1,1′-biphenyl]-2-yl)methyl)piperazin-1-yl)-N-((4-(((R)-4-morpholino-1-(phenylthio)butan-2-yl)amino)-3-((trifluoromethyl)sulfonyl)phenyl)sulfonyl)benzamide]
< 0.05 | < 0.05 | – | – | CC1(CNC(=O)CCCCCCCNc2cccc3c2C(=O)N(C2CCC(=O)NC2=O)C3=O)CCC(c2ccc(Cl)cc2)=C(CN2CCN(c3ccc(C(=O)NS(=O)(=O)c4ccc(N[C@H](CCN5CCOCC5)CSc5ccccc5)c(S(=O)(=O)C(F)(F)F)c4)cc3)CC2)C1 (stereo partly drawn) [compound 73, 4-(4-((4′-chloro-4-((8-((2-(2,6-dioxopiperidin-3-yl)-1,3-dioxoisoindolin-4-yl)amino)octanamido)methyl)-4-methyl-3,4,5,6-tetrahydro-[1,1′-biphenyl]-2-yl)methyl)piperazin-1-yl)-N-((4-(((R)-4-morpholino-1-(phenylthio)butan-2-yl)amino)-3-((trifluoromethyl)sulfonyl)phenyl)sulfonyl)benzamide]
< 0.05 | 0.05 to 0.15 | – | – | CC1(CNC(=O)CCCCCCCCNc2cccc3c2C(=O)N(C2CCC(=O)NC2=O)C3=O)CCC(c2ccc(Cl)cc2)=C(CN2CCN(c3ccc(C(=O)NS(=O)(=O)c4ccc(N[C@H](CCN5CCOCC5)CSc5ccccc5)c(S(=O)(=O)C(F)(F)F)c4)cc3)CC2)C1 (stereo partly drawn) [compound 74, 4-(4-((4′-chloro-4-((9-((2-(2,6-dioxopiperidin-3-yl)-1,3-dioxoisoindolin-4-yl)amino)nonanamido)methyl)-4-methyl-3,4,5,6-tetrahydro-[1,1′-biphenyl]-2-yl)methyl)piperazin-1-yl)-N-((4-(((R)-4-morpholino-1-(phenylthio)butan-2-yl)amino)-3-((trifluoromethyl)sulfonyl)phenyl)sulfonyl)benzamide]
0.05 to 0.15 | 0.15 to 0.5 | – | – | CC1(CNC(=O)CCCCCCCCCCNc2cccc3c2C(=O)N(C2CCC(=O)NC2=O)C3=O)CCC(c2ccc(Cl)cc2)=C(CN2CCN(c3ccc(C(=O)NS(=O)(=O)c4ccc(N[C@H](CCN5CCOCC5)CSc5ccccc5)c(S(=O)(=O)C(F)(F)F)c4)cc3)CC2)C1 (stereo partly drawn) [compound 75, 4-(4-((4′-chloro-4-((11-((2-(2,6-dioxopiperidin-3-yl)-1,3-dioxoisoindolin-4-yl)amino)undecanamido)methyl)-4-methyl-3,4,5,6-tetrahydro-[1,1′-biphenyl]-2-yl)methyl)piperazin-1-yl)-N-((4-(((R)-4-morpholino-1-(phenylthio)butan-2-yl)amino)-3-((trifluoromethyl)sulfonyl)phenyl)sulfonyl)benzamide]
0.05 to 0.15 | 0.05 to 0.15 | – | – | CC1(CNC(=O)COCCNc2cccc3c2C(=O)N(C2CCC(=O)NC2=O)C3=O)CCC(c2ccc(Cl)cc2)=C(CN2CCN(c3ccc(C(=O)NS(=O)(=O)c4ccc(N[C@H](CCN5CCOCC5)CSc5ccccc5)c(S(=O)(=O)C(F)(F)F)c4)cc3)CC2)C1 (stereo partly drawn) [compound 76, 4-(4-((4′-chloro-4-((2-(2-((2-(2,6-dioxopiperidin-3-yl)-1,3-dioxoisoindolin-4-yl)amino)ethoxy)acetamido)methyl)-4-methyl-3,4,5,6-tetrahydro-[1,1′-biphenyl]-2-yl)methyl)piperazin-1-yl)-N-((4-(((R)-4-morpholino-1-(phenylthio)butan-2-yl)amino)-3-((trifluoromethyl)sulfonyl)phenyl)sulfonyl)benzamide]
< 0.05 | < 0.05 | – | – | CC1(CNC(=O)COCCOCCNc2cccc3c2C(=O)N(C2CCC(=O)NC2=O)C3=O)CCC(c2ccc(Cl)cc2)=C(CN2CCN(c3ccc(C(=O)NS(=O)(=O)c4ccc(N[C@H](CCN5CCOCC5)CSc5ccccc5)c(S(=O)(=O)C(F)(F)F)c4)cc3)CC2)C1 (stereo partly drawn) [compound 77, 4-(4-((4′-chloro-4-((2-(2-(2-((2-(2,6-dioxopiperidin-3-yl)-1,3-dioxoisoindolin-4-yl)amino)ethoxy)ethoxy)acetamido)methyl)-4-methyl-3,4,5,6-tetrahydro-[1,1′-biphenyl]-2-yl)methyl)piperazin-1-yl)-N-((4-(((R)-4-morpholino-1-(phenylthio)butan-2-yl)amino)-3-((trifluoromethyl)sulfonyl)phenyl)sulfonyl)benzamide]
< 0.05 | < 0.05 | – | – | CC1(CNC(=O)COCCOCCOCCNc2cccc3c2C(=O)N(C2CCC(=O)NC2=O)C3=O)CCC(c2ccc(Cl)cc2)=C(CN2CCN(c3ccc(C(=O)NS(=O)(=O)c4ccc(N[C@H](CCN5CCOCC5)CSc5ccccc5)c(S(=O)(=O)C(F)(F)F)c4)cc3)CC2)C1 (stereo partly drawn) [compound 78, 4-(4-((4′-chloro-4-(13-((2-(2,6-dioxopiperidin-3-yl)-1,3-dioxoisoindolin-4-yl)amino)-3-oxo-5,8,11-trioxa-2-azatridecyl)-4-methyl-3,4,5,6-tetrahydro-[1,1′-biphenyl]-2-yl)methyl)piperazin-1-yl)-N-((4-(((R)-4-morpholino-1-(phenylthio)butan-2-yl)amino)-3-((trifluoromethyl)sulfonyl)phenyl)sulfonyl)benzamide]
> 0.5 | > 0.5 | – | – | Cc1ncsc1-c1ccc([C@H](C)NC(=O)[C@@H]2C[C@@H](O)CN2C(=O)[C@@H](NC(=O)CCC(=O)N2CCC(c3ccc(Cl)cc3)=C(CN3CCN(c4ccc(C(=O)NS(=O)(=O)c5ccc(N[C@H](CCN6CCOCC6)CSc6ccccc6)c(S(=O)(=O)C(F)(F)F)c5)cc4)CC3)C2)C(C)(C)C)cc1 [compound 79, (2S,4R)-1-((S)-2-(4-(4-(4-chlorophenyl)-5-((4-(4-(((4-(((R)-4-morpholino-1-(phenylthio)butan-2-yl)amino)-3-((trifluoromethyl)sulfonyl)phenyl)sulfonyl)carbamoyl)phenyl)piperazin-1-yl)methyl)-3,6-dihydropyridin-1(2H)-yl)-4-oxobutanamido)-3,3-dimethylbutanoyl)-4-hydroxy-N—((S)-1-(4-(4-methylthiazol-5-yl)phenyl)ethyl)pyrrolidine-2-carboxamide]
